Measurements taken from PubChem BioAssay AID1159564 (GlaxoSmithKline (GSK), 2015).
Calls of active or inactive are those of the source. The rule behind the calls is not given here.

System: L. donovani-infected THP-1 macrophages, intracellular amastigote imaging
Assay: antileishmanial activity in infected THP-1 macrophages – imaging, THP-1 host macrophages, host toxicity (AID 1159564)
[1] = measured here: THP-1 host cell toxicity
[2] = measured here: amastigotes per macrophage

## O=S(=O)(c1ccccc1C(F)(F)F)N1CCN(Cc2ccc(-n3ccnc3)cc2)CC1
  IC50: > 50 µM (inactive)
[1]
  IC50: 16 µM
[2]
  IC50: 25 µM

## CS(=O)(=O)c1cccc(-c2cnc(N)c3c(-c4ccc(CO)cc4)csc23)c1
  IC50: 10 µM
[1]
  IC50: > 50 µM
[2]
  IC50: 7.9 µM

## CN(C)c1ccc(N)cc1CN(CC1CCCO1)S(C)(=O)=O (configuration not stated)
  IC50: 13 µM
[1]
  IC50: > 50 µM
[2]
  IC50: 10 µM

## C=CC[C@@H]1CC=C[C@@H](C)N1C(=O)CCc1nnc(-c2ccc3c(c2)OCO3)o1
  IC50: 7.9 µM
[1]
  IC50: 13 µM
[2]
  IC50: 3.2 µM

## c1ccc(CCNCc2cncc3nc(-c4cnccn4)n(C4CCCCC4)c23)cc1
  IC50: > 50 µM (inactive)
[1]
  IC50: > 50 µM
[2]
  IC50: > 50 µM

## CC(=O)NCCNc1cc(-c2ccnc(Nc3cccc(Cl)c3)n2)ccn1
  IC50: 0.25 µM
[1]
  IC50: 0.1 µM
[2]
  IC50: 0.1 µM

## CN1CCCN(C(=O)c2ccc(N3CCCC3)cc2Cl)CC1
  IC50: > 50 µM (inactive)
[1]
  IC50: > 50 µM
[2]
  IC50: > 50 µM

## Cc1ccc(C)c(-n2nnnc2Sc2nc([N+](=O)[O-])nn2C)c1
  IC50: > 50 µM (inactive)
[1]
  IC50: > 50 µM
[2]
  IC50: > 50 µM

## COc1ccc(C(C)N(C)c2ncc3c(N)nc(N)nc3n2)cc1F (configuration not stated)
  IC50: 16 µM
[1]
  IC50: > 50 µM
[2]
  IC50: 13 µM

## Cc1ccc(C)c(CN2C(=O)NC3(CCc4ccccc43)C2=O)c1 (configuration not stated)
  IC50: > 50 µM (inactive)
[1]
  IC50: > 50 µM
[2]
  IC50: 16 µM

## CCC(=O)Nc1ccccc1C(=O)Nc1ccccn1
  IC50: > 50 µM (inactive)
[1]
  IC50: > 50 µM
[2]
  IC50: > 50 µM

## O=C1CN(C2CCCc3c(OCc4ccncc4)cccc32)C(=O)N1C1CCCCC1 (configuration not stated)
  IC50: > 50 µM (inactive)
[1]
  IC50: > 50 µM
[2]
  IC50: > 50 µM

## NC(=O)c1ncccc1Nc1nc(NC2CCC(O)CC2)ncc1Br (configuration not stated)
  IC50: 1.3 µM
[1]
  IC50: 0.4 µM
[2]
  IC50: 0.63 µM

## CNS(=O)(=O)c1ccccc1Nc1nc(Nc2cc(C)nn2C)ncc1Cl
  IC50: 1 µM
[1]
  IC50: 0.2 µM
[2]
  IC50: 0.25 µM

## Cc1cc(-c2cccc3ccccc23)nc2nc(N)nc(N)c12
  IC50: 5 µM
[1]
  IC50: 50 µM
[2]
  IC50: 1 µM

## Cc1cc(Br)sc1CNCCCNc1cc(=O)c2ccccc2[nH]1
  IC50: 25 µM
[1]
  IC50: 20 µM
[2]
  IC50: 20 µM

## COCc1cc(Nc2ccccc2)nc(-c2ccccn2)n1
  IC50: 7.9 µM
[1]
  IC50: > 50 µM
[2]
  IC50: 5 µM

## O=[N+]([O-])c1ccc(-c2nnn(-c3cccnc3)n2)o1
  IC50: > 50 µM (inactive)
[1]
  IC50: 13 µM
[2]
  IC50: 50 µM

## c1ccc(-c2nc(NCc3ccco3)c3ccccc3n2)nc1
  IC50: 2.5 µM
[1]
  IC50: 32 µM
[2]
  IC50: 2.5 µM

## CC(=O)NC1(c2ccccc2)CCN(CC(=O)Nc2ccccc2-c2ccccc2)CC1
  IC50: > 50 µM (inactive)
[1]
  IC50: > 50 µM
[2]
  IC50: 40 µM

## O=C(C1CCCCC1)N1CCN(c2nnc(-c3ccccc3)c3ccccc23)CC1
  IC50: > 50 µM (inactive)
[1]
  IC50: 50 µM
[2]
  IC50: 20 µM

## CC(C)S(=O)(=O)c1ccc(-c2cnc(N)c3cc(-c4ccnc(N)n4)ccc23)cc1
  IC50: 1.3 µM
[1]
  IC50: 2.5 µM
[2]
  IC50: 0.5 µM

## O=C(Nc1nc2cc(Cl)ccc2o1)c1cccc(Cl)c1
  IC50: > 50 µM (inactive)
[1]
  IC50: 6.3 µM
[2]
  IC50: > 50 µM

## Cc1cc2cc(CNc3ccc4c(c3)OCO4)c(=O)n(CCO)c2cc1C
  IC50: 0.5 µM
[1]
  IC50: 40 µM
[2]
  IC50: 0.25 µM

## O=C(Nc1cccc(Cl)c1)Nc1ccc([N+](=O)[O-])cc1Cl
  IC50: 3.2 µM
[1]
  IC50: 25 µM
[2]
  IC50: 2 µM

## N#Cc1cc(-c2ccnc(Nc3cccc(CN4CCOCC4)c3)n2)ccc1NCCN
  IC50: 1.6 µM
[1]
  IC50: 7.9 µM
[2]
  IC50: 0.79 µM

## CNC(=O)C1Cc2ccccc2N1C(=O)COc1cccc(OC)c1 (configuration not stated)
  IC50: > 50 µM (inactive)
[1]
  IC50: > 50 µM
[2]
  IC50: > 50 µM

## CC1CCCN(S(=O)(=O)c2ccc(C(=O)Nc3nc(-c4ccccn4)cs3)cc2)C1 (configuration not stated)
  IC50: 0.25 µM
[1]
  IC50: 5 µM
[2]
  IC50: 0.16 µM

## COc1ccccc1C=CCN1C[C@H]2CCC[C@@H](C1)C2(O)c1cccnc1 (some centres not stated)
  IC50: > 50 µM (inactive)
[1]
  IC50: 40 µM
[2]
  IC50: 32 µM

## CCOc1cc(NCCCN2CCN(C)CC2)c2ncccc2c1
  IC50: 1.3 µM
[1]
  IC50: 6.3 µM
[2]
  IC50: 0.79 µM

## COc1cccc(NS(=O)(=O)c2ccc3[nH]cc(C(=O)NCCC(C)C)c(=O)c3c2)c1
  IC50: > 50 µM (inactive)
[1]
  IC50: > 50 µM
[2]
  IC50: > 50 µM

## Cc1cc(NC(=O)CC2CCCCC2)n(-c2nc3c(c(=O)[nH]2)CCC3)n1
  IC50: 3.2 µM
[1]
  IC50: 4 µM
[2]
  IC50: 1.6 µM

## COc1ccc([N+](=O)[O-])cc1NC(=O)Nc1cccc(Cl)c1
  IC50: > 50 µM (inactive)
[1]
  IC50: 50 µM
[2]
  IC50: > 50 µM

## CC(=Cc1ccccc1)CN1CCC(=O)N(Cc2cccnc2)CC1
  IC50: > 50 µM (inactive)
[1]
  IC50: 40 µM
[2]
  IC50: 32 µM

## N#Cc1ccc(Br)cc1[N+](=O)[O-]
  IC50: 20 µM
[1]
  IC50: 25 µM
[2]
  IC50: 13 µM

## O=C(NCc1ccc(-n2cccc2)cc1)c1nc(Cn2ccc([N+](=O)[O-])n2)no1
  IC50: > 50 µM (inactive)
[1]
  IC50: > 50 µM
[2]
  IC50: > 50 µM

## COc1ccc2nccc(NC(=O)C3(OC)CCN(CC(O)c4ccc5c(c4)OCCO5)CC3)c2n1 (configuration not stated)
  IC50: 20 µM
[1]
  IC50: 25 µM
[2]
  IC50: 6.3 µM

## O=C(CCc1ccc(-c2ccccc2)o1)N1CCN(c2ccc(O)cc2)CC1
  IC50: 4 µM
[1]
  IC50: > 50 µM
[2]
  IC50: 1.3 µM

## O=C(CC1(O)C(=O)N(Cc2cccs2)c2ccc(Br)cc21)c1cccnc1 (configuration not stated)
  IC50: > 50 µM (inactive)
[1]
  IC50: 20 µM
[2]
  IC50: > 50 µM

## O=C(NCCCn1cnc2ccccc21)c1ccc(NC(=O)c2ccco2)cc1
  IC50: > 50 µM (inactive)
[1]
  IC50: > 50 µM
[2]
  IC50: 13 µM

## O=C(Cn1cnc2c(-c3ccccc3)csc2c1=O)N1CCCCC1
  IC50: > 50 µM (inactive)
[1]
  IC50: > 50 µM
[2]
  IC50: > 50 µM

## COc1ccc(-c2cnc(NC(=O)c3cc(-c4ccccn4)n[nH]3)n2C)cc1
  IC50: 1 µM
[1]
  IC50: > 50 µM
[2]
  IC50: 0.79 µM

## COc1cc2c(cc1OC)[C@H]1[C@@H](C)c3ccc(OC)c(OC)c3CN1CC2
  IC50: 20 µM
[1]
  IC50: > 50 µM
[2]
  IC50: 16 µM

## COc1ccc(CN(C)Cc2ccncc2)cc1-c1ccc(S(=O)(=O)NC2CCC2)s1
  IC50: > 50 µM (inactive)
[1]
  IC50: 20 µM
[2]
  IC50: 16 µM

## C[C@@H](Oc1cc(-n2cnc3ccc(O[C@H]4CCNC4)cc32)sc1C(N)=O)c1ccccc1Cl
  IC50: 7.9 µM
[1]
  IC50: 6.3 µM
[2]
  IC50: 5 µM

## COc1cccc(CN(C)Cc2nc(N)c3c(C)c(C)sc3n2)c1
  IC50: 5 µM
[1]
  IC50: 32 µM
[2]
  IC50: 3.2 µM

## CN(C)CCN(C)Cc1ccc(F)cc1NS(=O)(=O)c1ccc(Cl)c(Cl)c1
  IC50: 7.9 µM
[1]
  IC50: 32 µM
[2]
  IC50: 2.5 µM

## O=C(N[C@H](CO)c1ccccc1)c1ccc(-c2c[nH]c3nccc(C(F)(F)F)c23)s1
  IC50: 25 µM
[1]
  IC50: 13 µM
[2]
  IC50: 16 µM

## Cc1cc(C)n(-c2nc(NC(C)C)nc(NC(C)(C)C)n2)n1
  IC50: 5 µM
[1]
  IC50: 6.3 µM
[2]
  IC50: 4 µM

## COc1cc(C(C)C)c(S(C)(=O)=O)cc1C(=O)N1CCN(c2ccccc2Cl)CC1
  IC50: 16 µM
[1]
  IC50: 16 µM
[2]
  IC50: 13 µM

## COc1ccc(NS(=O)(=O)c2cc(NC(=O)Cc3ccc(C)cc3)ccc2N2CCOCC2)cc1
  IC50: > 50 µM (inactive)
[1]
  IC50: > 50 µM
[2]
  IC50: > 50 µM

## CN(Cc1ccc(C(N)=O)cc1)C(c1ccc(F)cc1)c1cccnc1 (configuration not stated)
  IC50: > 50 µM (inactive)
[1]
  IC50: > 50 µM
[2]
  IC50: > 50 µM

## c1ccc2c(CCOc3nccnc3-c3ccncc3)c[nH]c2c1
  IC50: > 50 µM (inactive)
[1]
  IC50: 20 µM
[2]
  IC50: 20 µM

## CC(C)CC(=O)NC(c1cccs1)c1ccc2cccnc2c1O (configuration not stated)
  IC50: 7.9 µM
[1]
  IC50: 1.6 µM
[2]
  IC50: 3.2 µM

## Cc1ccccc1NS(=O)(=O)c1ccc2[nH]cc(C(=O)NC3CCCCC3)c(=O)c2c1
  IC50: 40 µM
[1]
  IC50: 32 µM
[2]
  IC50: 40 µM

## c1ccc(-c2nc(NC3CCCC3)c3ccccc3n2)nc1
  IC50: 2 µM
[1]
  IC50: 20 µM
[2]
  IC50: 1.3 µM

## O=C(c1ccc(Cl)cc1)c1ccc(OC(=O)N2CCOCC2)cc1
  IC50: 5 µM
[1]
  IC50: > 50 µM
[2]
  IC50: 2 µM

## CCC(CC)C(=O)Nc1cccc(C(=O)Nc2nnc(C3CCCCC3)s2)c1
  IC50: > 50 µM (inactive)
[1]
  IC50: > 50 µM
[2]
  IC50: > 50 µM

## CC(C)(C)C(=O)NCCc1csc(-c2ccc(F)cc2)n1
  IC50: > 50 µM (inactive)
[1]
  IC50: > 50 µM
[2]
  IC50: > 50 µM

## CNc1cc(C)nc(C2CN(C(=O)c3n[nH]c4ccccc34)CCO2)c1 (configuration not stated)
  IC50: > 50 µM (inactive)
[1]
  IC50: > 50 µM
[2]
  IC50: > 50 µM

## N#Cc1cccc(Cc2cc(Nc3cc(C4CC4)[nH]n3)nc(N3CC[C@H]3C(N)=O)n2)c1
  IC50: 0.2 µM
[1]
  IC50: 0.032 µM
[2]
  IC50: 0.079 µM

## CC(C)COC(=O)Nc1ccc(N2CCC(CNS(=O)(=O)c3ccccc3)CC2)c(F)c1
  IC50: 2 µM
[1]
  IC50: > 50 µM
[2]
  IC50: 1.3 µM

## CC(CCc1ccccc1)NC(=O)CN(Cc1ccccn1)Cc1ccccn1 (configuration not stated)
  IC50: 3.2 µM
[1]
  IC50: 20 µM
[2]
  IC50: 3.2 µM

## CCN(CC)S(=O)(=O)c1ccc(OC)c(NC(=O)c2ccc([N+](=O)[O-])s2)c1
  IC50: > 50 µM (inactive)
[1]
  IC50: > 50 µM
[2]
  IC50: > 50 µM

## CCCCn1c(=O)c2c(N)onc2n(CCCC)c1=O
  IC50: > 50 µM (inactive)
[1]
  IC50: > 50 µM
[2]
  IC50: 32 µM

## CN(C)Cc1ccc(-c2ccc(S(=O)(=O)NCC3CCCO3)c(F)c2)cc1 (configuration not stated)
  IC50: > 63 µM (inactive)
[1]
  IC50: 63 µM
[2]
  IC50: > 63 µM

## COc1ccc(C2=NCC(CSc3nnc(-c4ccc5c(c4)OCO5)o3)S2)cc1 (configuration not stated)
  IC50: 1 µM
[1]
  IC50: > 50 µM
[2]
  IC50: 0.4 µM

## CC(C)(C)c1cc(NC2CC2)nc(-c2ccccn2)n1
  IC50: 2.5 µM
[1]
  IC50: 25 µM
[2]
  IC50: 1.6 µM

## CC(Cn1ccnc1)NC(=O)C=Cc1ccc(Cl)cc1 (configuration not stated)
  IC50: > 50 µM (inactive)
[1]
  IC50: > 50 µM
[2]
  IC50: > 50 µM
